In one assay the test system is BMSCs. Kind of assay: Transwell migration (chemotaxis) assay. The format is cell-based, mice. As for the experimental part: The migratory ability of BMSCs was determined using Transwell plates (Corning Costar, 6.5 mm in diameter with 8 μm pore filters). In brief, 5×10^4 cells in 100 μL, serum-free medium were added into the upper well, and 600 μL, of CXCL12-containing medium was placed in the lower well of a Transwell plate. Following incubation for 5 h (37° C., 100% humidity, 5% CO2 in air), the number of cells that had migrated to the lower side of the filter was counted under a light microscope at ×200 magnification, and the data were presented as the average number of migratory in five randomly-selected fields. Each experiment was performed in triplicate, and the data were averaged for statistical analysis.

Assay [1] concerns CCI mice. Kind of assay: Two-chamber conditioned place preference test for ongoing pain after CCI. The format is in vivo. Conditions: clonidine 10 μg i.t. From the text: To test spontaneous/ongoing pain measurement, a single trial conditioning protocol for conditioned place preference (CPP) was used as described in King et al. (Nat. Neurosci. 2009, 12, 1364-1366) and Xu et al. (Ann. Neurol. 2013, 74, 490-495). All mice underwent a 3-day pre-conditioning habituation and animal behavior was video-recorded. […] On the conditioning day, mice received the vehicle (saline) control paired with a randomly chosen chamber in the morning, and then the appropriate treatment (clonidine, 10 μg, i.t.) paired with the other chamber 4 h later. Chamber pairings were counterbalanced. On the test day, 20 h following the afternoon pairing, mice were placed in the CPP box with access to both chambers and the behavior was recorded for 15 min and analyzed by ANY-maze software for chamber preference.

The next assay has as its system TGF-β1. Kind of assay: ELISA of TGF-β1 release and expression in BMSCs cultures. Type of assay: cell-based, mice. The following applies: TNF 10 ng/mL, 60 min, LPS 100 ng/mL. The procedure: Tgfβ1 siRNA (Catalog: J-040652-06), Cxcr4 siRNA (Catalog: J-060184-06) and Non-targeting siRNA (Catalog: D-0018100-01-20) were purchased from Thermo Scientific Dharmacon. SiRNA was dissolved in RNase-free water at 1 μg/μL as stock solution and mixed with transfection reagent polyethyleneimine (PEI, Fermentas) and normal saline before use. Specifically, 1 μg siRNA was dissolved in 3.3 μL of PEI and 66 μL of normal saline (Kawasaki, et al. Nat. Med. 2008, 14, 331-336).
Primary cultures of BMSCs were obtained from CD-1 donor mice under aseptic conditions. The mice were sacrificed with isoflurane and the both ends of the tibiae and femurs were cut off by scissors. A syringe fitted with 20-gauge needle was inserted into the shaft of the bone, and bone marrow was flushed out with culture medium (modified Eagle's medium containing 10% fetal bovine serum, 2 mM L-glutamine, 100 U/mL penicillin and 100 μg/mL streptomycin, 250 μg/mL Fungizone, all obtained from Gibco). After the centrifuge at 1000 g for 5 min at room temperature, the pellet was resuspended in 2 mL fresh warm culture medium and mechanically dissociated, and the suspension was passed through a 40-μm cell strainer to remove debris. After the centrifuge the cells were resuspended at a concentration of 1×10^6 cells/mL. The cells were then incubated at 37° C. in 5% CO2 in 75 cm2 cell culture flasks or 6-well culture plates. […]
(In general: ELISA stands for enzyme-linked immunosorbent assay.)

In another assay the test system is IL-10. Kind of assay: ELISA of IL-10 release in BMSCs culture medium. Conditions: TNF 10 ng/mL, 60 min, LPS 100 ng/mL. Type of assay: cell-based, mice. The procedure:
Primary cultures of BMSCs were obtained from CD-1 donor mice under aseptic conditions. The mice were sacrificed with isoflurane and the both ends of the tibiae and femurs were cut off by scissors. A syringe fitted with 20-gauge needle was inserted into the shaft of the bone, and bone marrow was flushed out with culture medium (modified Eagle's medium containing 10% fetal bovine serum, 2 mM L-glutamine, 100 U/mL penicillin and 100 μg/mL streptomycin, 250 μg/mL Fungizone, all obtained from Gibco). After the centrifuge at 1000 g for 5 min at room temperature, the pellet was resuspended in 2 mL fresh warm culture medium and mechanically dissociated, and the suspension was passed through a 40-μm cell strainer to remove debris. After the centrifuge the cells were resuspended at a concentration of 1×10^6 cells/mL. The cells were then incubated at 37° C. in 5% CO2 in 75 cm2 cell culture flasks or 6-well culture plates. After 24 hours, cells were washed gently with PBS and replaced with fresh culture media. Adherent cells were further cultured with a medium change every 2-3 days until confluence was reached (also see FIG. 11).
Mouse TGF-β1, IL-10, and CXCL12/SDF-1α ELISA kits were purchased from R&D Systems. ELISA was performed using BMSCs culture medium or cell lysate, CSF, and DRG tissue. Cultured cells and DRGs were homogenized in a lysis buffer containing protease and phosphatase inhibitors. […]

In another assay the test system is small-sized DRG neurons. Kind of assay: Whole-cell patch clamp recordings of action potentials in whole mount DRG. Type of assay: cell-based, mice. As for the experimental part: The L4-L5 whole mount DRGs were carefully removed from the vertebral column and placed in cold oxygenated ACSF as detailed in Lee et al. (Cell 2014, 157, 1393-1404). The connective tissue was gently removed under a microscope and the ganglia were digested with a mixture of 1.0 mg/mL protease and 1.6 mg/mL collagenase (Sigma) for 30 min at 37° C. The ganglion was transferred into a holding chamber containing normal Mg2+-free ACSF with CNQX (2 μM) bubbled with 95% O2 and 5% CO2 at room temperature. Whole-cell current clamp recordings were performed at room temperature (28° C.) to measure action potentials with Axopatch-200B amplifier (Axon Instruments). The patch pipettes were pulled from borosilicate capillaries (Chase Scientific Glass Inc.). When filled with the pipette solution, the resistance of the pipettes was 4-5 MΩ. The recording chamber (300 μL) was continuously superfused (3-4 mL/min). Series resistance was compensated for (>80%), and leak subtraction was performed. Data were low-pass-filtered at 2 KHz, sampled at 10 KHz. The pClamp10 (Axon Instruments) software was used during experiments and analysis.

Assay [2] has as its system lamina IIo neurons of spinal cord slices. Kind of assay: Patch-clamp recordings of sEPSCs in spinal cord slices. The format is cell-based, mice. As for the experimental part: A portion of the lumbar spinal cord (L4-L5) was removed from mice (4-7 weeks old) under urethane anesthesia (1.5-2.0 g/kg, i.p.) and kept in pre-oxygenated ice-cold Krebs solution (Xu, et al. Ann. Neurol. 2013, 74, 490-495). Transverse slices (400-600 μm) were cut on a vibrating microslicer. The slices were perfused with Kreb's solution (8-10 mL/min) that was saturated with 95% O2 and 5% CO2 at 36° C. for at least 1-3 h prior to experiment. The Kreb's solution contained (in mM): NaCl 117, KCl 3.6, CaCl2 2.5, MgCl2 1.2, NaH2PO4 1.2, NaHCO3 25, and […]. The whole-cell patch-clamp recordings were made from lamina IIo neurons in voltage-clamp mode. Patch pipettes were fabricated from thin-walled, borosilicate, glass-capillary tubing (1.5 mm outer diameter; World Precision Instruments). After establishing the whole-cell configuration, neurons were held their holding potentials at −70 mV for recording sEPSCs. The resistance of a typical patch pipette is 5-10 M. The internal solution contained the following (in mM): 135 potassium gluconate, 5 KCl, 0.5 CaCl2, 2 MgCl2, 5 EGTA, 5 HEPES, and 5 ATP-Mg. Membrane currents were amplified with an Axopatch 200 A amplifier (Molecular Devices) in voltage-clamp mode. Signals were filtered at 2 kHz and digitized at 5 kHz. Data were stored with a personal computer using pClamp 6 software and analyzed with Mini Analysis (Synaptosoft).
For orientation: Patch clamp records ionic current or voltage across a cell membrane.

For assay [3], the system named is CCI mice. Kind of assay: CCI neuropathic pain model: mechanical allodynia (von Frey) and thermal hyperalgesia (Hargreaves). Type of assay: in vivo. From the text:
Adult CD1 mice (male, 25-32 g) were purchased from Charles River Laboratories and used for behavioral studies and primary cultures of BMSCs. Neuropathic pain was produced by chronic constriction injury of the sciatic nerve (CCI) (Bennett, et al. J. Neurosci. 1998, 18, 3059-3072) and spared nerve injury (SNI) (Decosterd, et al. Pain 2000, 87, 149-158). For producing the CCI model animals were anesthetized with isoflurane, the left sciatic nerve was exposed, and three ligatures (7-0 prolene) were placed around the nerve proximal to the trifurcation with one millimeter between each ligature. The ligatures were loosely tied until a short flick of the ipsilateral hind limb was observed. Animals in the sham group received surgery identical to those described but without nerve ligation. Under isoflurane anesthesia, the SNI surgery was also performed with a 5.0 silk tight ligation of the tibial and common peroneal nerves followed by transection and removal of a 3-5 mm nerve portion. However, the third peripheral branch of the sciatic nerve, the sural nerve, remained intact, and any contact or stretch to this nerve was carefully avoided. All the animal procedures performed in this study were approved by the Animal Care Committee of Duke University Medical Center. TGF-β1, […] neutralizing antibody, TNF and CXCL12/SDF-1α were purchased from R&D, LPS from Sigma. AMD3100 (CXCR4 antagonist) and SB431542 (TGF-β1R inhibitor) were purchased from Selleckchem. IL-10 neutralizing antibody was purchased from Biolegend, and normal Rabbit IgG were purchased from Santa Cruz. For intrathecal injection, spinal cord puncture was made with a 30-G needle between the L5 and L6 level to deliver reagents (10 μL) or cells (1 or 2.5×10^5 cells in 10 μL PBS) to the cerebral spinal fluid (Hylden, et al. Eur. J. Pharmacol. 1980, 67, 313-316). […] Cells were then washed three times with PBS and resuspended. Animals were habituated to the testing environment daily for at least 2 days before baseline testing. The room temperature and humidity remained stable for all experiments. All the behaviors were tested blindly. For testing mechanical sensitivity, mice were confined in boxes placed on an elevated metal mesh floor and their hindpaws were stimulated with a series of von Frey hairs with logarithmically increasing stiffness (0.02-2.56 g, Stoelting), presented perpendicularly to the central plantar surface. The 50% paw withdrawal threshold was determined by Dixon's up-down method. Mechanical allodynia after SNI was also assessed by frequency response (expressed as percentage response) to a low-threshold von Frey hair (0.16 g, 10 times). […] The falling latency was recorded and averaged.

The test system of assay [4] is PAX-induced mechanical allodynia in mice. Kind of assay: Paclitaxel (PAX)-induced neuropathic pain model: paw withdrawal frequency to von Frey hair (0.4 g). Type of assay: in vivo. Conditions: i.t. TGF-β1 100 ng, 7 weeks after first paclitaxel injection. As for the experimental part:
PAX-induced neuropathic pain (mechanical allodynia) was evaluated by paw withdrawal frequency to von Frey hair (0.4 g) stimuli (10×). Intrathecal BMSCs (2.5×10^5) produced a rapid (1 week) and long lasting (7 weeks) reduction in PAX-induced mechanical allodynia (FIG. 19B).
The analgesic efficacy of TGF-β1 was also tested in a PAX-induced neuropathic pain model. […] PAX-induced neuropathic pain was evaluated by paw withdrawal frequency to von Frey hair (0.4 g) stimuli (10×). Intrathecal TGF-β1 transiently reversed PAX-induced mechanical allodynia for 3 hours following injection (FIG. 20).

As to “CXCL12: chemokine, ligand of CXCR4, purchased from R&D”, in the assay with BMSCs (CXCL12 0-100 ng/ml), the “migration of BMSCs in vitro” value is listed as “induced migration”.
`c1cc(CN2CCCNCCNCCCNCC2)ccc1CN1CCCNCCNCCCNCC1` [AMD3100]: in the assay on BMSCs (AMD3100 5 mg/L 30 min), the “CXCL12-induced migration of BMSCs” value is “blocked”.
With `Clc1cccc(Cl)c1N=C1NCCN1` [clonidine], in the assay on CCI mice [1], the “time in chamber paired with drug versus chamber paired with vehicle (CPP)” value is reported as “spent more time”.
For TNF-α, the “TGF-β1 release of BMSCs on exposure” value in the assay with TGF-β1 is “significantly increased”. Also, the “IL-10 release of BMSCs on exposure (increase)” value in the assay with IL-10 is “not”.
Consider `NC(=O)c1ccc(-c2nc(-c3ccc4c(c3)OCO4)c(-c3ccccn3)[nH]2)cc1` [SB431542, reference compound], for which the “effect on the TGF-β1 suppression of spike frequency” value in the assay on small-sized DRG neurons (SB431542 10 μM) was “reversed”. Besides, in assay [2] (SB431542 10 μM), the “effect on the TGF-β1 (10 ng/mL) blockade of sEPSC increases” value was “abrogated”. In addition, in the assay with CCI mice [3] (SB431542 100 pmol i.t., CCI mice), the “effect on the anti-allodynic and anti-hyperalgesic effects of TGF-β1 (10 ng)” value is given as “eliminated”.
With “TGF-β1: exogenous recombinant TGF-β1 purchased from R&D, given intrathecally or superfused”, in the assay with small-sized DRG neurons (TGF-β1 2 or 10 ng/mL), the “CCI-induced increase in spike frequency in small-sized DRG neurons” value was “dose-dependently suppressed” and the “time to suppression of the spike frequency increase” value was 2 to 5 min. In addition, the “duration of reversal of PAX-induced mechanical allodynia following injection” value in assay [4] was 3 h. Also, the “sEPSC frequency and amplitude in sham mice” value in assay [2] (superfusion 10 ng/mL) is “no effects”. For the same molecule, the “time to blockade of CCI-induced sEPSC increases” value in assay [2] (superfusion 2 or 10 ng/mL) is 2 min. For the same molecule, the “CCI-induced increases in sEPSC frequency and amplitude” value in assay [2] (superfusion 2 or 10 ng/mL, slices from CCI mice (4 d)) is “blocked”. In addition, in the assay with CCI mice [3] (i.t. TGF-β1), the “late-phase neuropathic pain on post-CCI day 21” value is listed as “effectively inhibited”. In addition, the “mechanical allodynia and thermal hyperalgesia at 5 days after CCI” value in the assay on CCI mice [3] (i.t. TGF-β1 2 ng and 10 ng) is reported as “dose-dependently inhibited”. Further, in the assay with CCI mice [3] (i.t. TGF-β1 2 and 10 ng, 5 days after CCI), the “time after which the reversal of allodynia/hyperalgesia recovered” value is listed as 24 h.

Values taken from patent US11389483B2, “Methods for treating pain” (Duke University, priority 2015, dated 2022).
